Results taken from paper PMC5034337 (Scientific Reports, 2016).

Columns and labels:
[1] = test system: HT-29 colon carcinoma cells
[2] = moderately exposed UK population; cited from earlier work
mammalian ribosomes = type: biochemical, rabbit
[3] = test system: primary human colon epithelial cells (HCEC-1CT)
[4] = in vivo; cited from earlier work
[5] = in vivo
[6] = French farmers with detectable DOM-1 levels; cited from earlier work

SMILES | concentration(s) with proliferative stimulus [1] [µM] | cytotoxic effect [1] | concentration from which a significant decrease of cell viability was detectable ([1]; human) [µM] | overall 24 h urinary excretion rate of total DON (sum of DON and its glucuronides), average [2] [%] | concentration at which translation was completely inhibited (mammalian ribosomes) [µM] | concentration(s) with proliferative stimulus (Caco-2 cells) [nM] | cytotoxic effect (Caco-2 cells) | concentration from which a significant decrease of cell viability was detectable (Caco-2 cells; human) [µM] | concentration(s) with proliferative stimulus (T24 bladder cancer cells) [nM] | cytotoxic effect (T24 bladder cancer cells) | lowest concentration at which the proliferative effect was present (T24 bladder cancer cells) [nM] | concentration from which a significant decrease of cell viability was detectable (T24 bladder cancer cells; human) [µM] | cytotoxic effect [3] | concentration from which a significant decrease of cell viability was detectable ([3]; human) [µM] | maximum urinary concentration [4] [µg/L] | detection in urine samples [5] | share of the total urinary DON, average [6] [%]
CC1=C[C@H]2O[C@@H]3[C@H](O)C[C@](C)([C@@]2(CO)[C@H](O)C1=O)[C@]31CO1 [DON, deoxynivalenol] | 0.1 | concentration dependent cytotoxicity | 10 | 72 | 20 | 10 | concentration dependent cytotoxicity | 10 | 0.1 to 10 | concentration dependent cytotoxicity | 0.1 | 1 | concentration dependent cytotoxicity | 1 | 275 | – | –
C=C1[C@@H]2O[C@@H]3C=C(C)C(=O)[C@@H](O)[C@]3(CO)[C@@]1(C)C[C@H]2O [DOM-1, deepoxy-DON] | – | – | – | – | – | – | – | – | – | – | – | – | – | – | – | no DOM-1 was detected in any sample | < 5
